Data taken from patent US11497819B2, “PSMA ligands for imaging and endoradiotherapy” (priority 2017, dated 2022).
Several values for one entry are separate records, joined by “and”; a condition that tells them apart may be missing. Equal values may be shown once.

Experiments:
HSA = biological target: T1, HSA (Homo sapiens, UniProt P02768); assay: HSA binding on Chiralpak HSA column; type: in vitro ADME
T1 construct: purchased Daicel Chemical Industries / Chiral Technologies Europe (Illkirch, France)
T1 sequence (P02768 25-609): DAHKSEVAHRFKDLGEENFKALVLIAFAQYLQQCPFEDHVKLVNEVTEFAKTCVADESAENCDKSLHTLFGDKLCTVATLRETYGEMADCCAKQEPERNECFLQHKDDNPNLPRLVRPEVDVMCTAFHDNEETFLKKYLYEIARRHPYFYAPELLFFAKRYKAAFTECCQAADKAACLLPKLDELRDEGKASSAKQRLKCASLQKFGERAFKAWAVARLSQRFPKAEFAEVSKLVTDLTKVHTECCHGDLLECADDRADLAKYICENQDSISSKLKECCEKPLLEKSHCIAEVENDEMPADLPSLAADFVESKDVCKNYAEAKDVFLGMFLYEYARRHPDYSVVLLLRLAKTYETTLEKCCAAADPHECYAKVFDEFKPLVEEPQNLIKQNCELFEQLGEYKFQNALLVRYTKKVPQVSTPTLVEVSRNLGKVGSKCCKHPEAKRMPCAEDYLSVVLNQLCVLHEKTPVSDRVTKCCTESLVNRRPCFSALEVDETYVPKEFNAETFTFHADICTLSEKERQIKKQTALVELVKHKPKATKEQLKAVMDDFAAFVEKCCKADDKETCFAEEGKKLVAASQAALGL
Procedure: HSA binding experiments were performed as previously described. […] For each run, 10 μL of the solution containing the inhibitor was injected into the RP-HPLC system and the retention time measured. […] Non-linear regression was established with OriginPro 2016G.

LNCaP cells [1] = assay: Internalization into LNCaP cells, relative cellular uptake to ([^125I]I-BA)KuE; type: cell-based; conditions: c = 1.0 nM ^177Lu-labeled inhibitor, 37° C., 60 min, corrected for non-specific binding (10 μM 2-PMPA), mean ± SD (n = 3)
Procedure: PSMA-positive LNCAP cells (300265; Cell Lines Service GmbH) were cultivated in Dulbecco modified Eagle medium/Nutrition Mixture F-12 (1/1) (DMEM-F12, Biochrom) supplemented with fetal calf serum (FCS) (10%, Biochrom) and kept at 37° C. in a humidified CO2 atmosphere (5%). One day (24 h±2 h) prior to all experiments with LNCaP cells, the cultivated cells were harvested using a mixture of trypsin/ethylendiaminetetraacetate (0.05%/0.02%) and PBS and centrifuged. After centrifugation, the supernatant was disposed and the cell pellet resuspended in culture medium. Afterwards, cells were counted with a hemocytometer (Neubauer) and seeded in 24-well plates.
Subsequent to the removal of the culture medium, the cells were washed once with DMEM-F12-solution (500 μL, 5% BSA) and left to equilibrate for at least 15 min at 37° C. in DMEM-F12-solution (200 μL, 5% BSA). Afterwards, each well was treated with either DMEM-F12-solution (25 μL, 5% BSA) or 2-PMPA-solution (25 μL, 100 μm) for blockade. […] The experiment was terminated by placing the 24-well plate on ice for 3 min and the consecutive removal of the medium. Each well was rinsed with HBSS (250 μL) and the fractions from these first two steps combined, representing the amount of free radioligand. Removal of surface bound activity was accomplished by incubation of the cells with ice-cold 2-PMPA-solution (250 μL, 10 μm in PBS) for 5 min and subsequent rinsing with ice-cold PBS (250 μL). The internalized activity was determined through incubation of the cells in NaOH (250 μL, 1.0 m) and the combination with the fraction of the subsequent washing step with again NaOH (250 μL, 1.0 m). Each experiment (control and blockade) was performed in triplicate for each time point. Free, surface bound and internalized activity was quantified in a γ-counter.

LNCaP-tumor = system: LNCaP-tumor; parameters: species or system CB-17 SCID mice; conditions: male, CB-17 SCID, mouse, in vivo, 85 min
Procedure: (§1) All animal experiments were carried out in accordance with the general animal welfare regulations in Germany (Deutsches Tierschutzgesetz, approval #55.2-1-54-2532-71-13). For the tumor model, LNCaP cells (approx. 10^7 cells) were suspended in serum-free DMEM-F12 medium and Matrigel (1/1; v/v) (BD Biosciences, Germany) and inoculated onto the right shoulder of male, 6 to 8 weeks old CB-17 SCID mice (Charles River Laboratories, Sulzfeld, Germany). Animals were used after the tumor size reached 4 to 8 mm in diameter for experiments.
Imaging experiments were conducted using a Siemens Inveon small animal PET and the data analyzed by the associated Inveon Research Workplace software. Mice were anaesthetized with isoflurane and approx. 4.0 to 17 MBq of the ^68Ga-labeled compounds were injected via tail vein (approx. 150 to 300 μL). Dynamic imaging was carried out after on-bed injection for 90 min. The static blockade image was obtained after 1 h p.i. with 15 min acquisition time. PSMA-blockade was achieved by coinjection of 8 mg/kg of 2-PMPA-solution (PBS). All images were reconstructed using an OSEM3D algorithm without […] and attenuation correction.

LNCaP cells [2] = assay: Externalization kinetics / cell retention in LNCaP cells; type: cell-based
Procedure: FIG. 2: Externalization kinetics of selected ^177Lu-labeled PSMA inhibitors from LNCaP cells. […] Then, the supernatant was removed and once washed with DMEM-solution (5% BSA, 37° C.). Afterwards, either A) only DMEM-solution (5% BSA) or B) blockade DMEM-solution (5% BSA, 10 μm 2-PMPA) were added for replacement. The total cellular internalized activity at t=0 min was corrected for non-specific binding (10 μm 2-PMPA) and normalized to 100%. All data are expressed as mean±SD (n=3).
Externalization kinetics of the radiolabeled PSMA inhibitors were determined using LNCaP cells, which were similarly prepared as described for the internalization assay. After an initial cell-washing step with DMEM-F12-solution (5% BSA), the cells were left to recondition for at least 15 min at 37° C. Subsequently, the LNCaP cells were incubated with the respective radiolabeled peptide (25 μL, 10.0 nm) at 37° C. for 60 min in a total volume of 250 μL in each well. After 60 min, the supernatant with the unbound free fraction was removed and measured in a γ-counter for the calculation of total added radioactivity. An acid wash step was avoided to warrant enzyme integrity during the following externalization and recycling study. To determine the recycling rate, fresh DMEM-F12-solution (250 μL, 5% BSA) was given to the cells to allow re-internalization. In contrast, re-internalization was inhibited by addition of DMEM-F12-solution containing 2-PMPA (225 μL DMEM-F12 (5% BSA) and 25 μL of 100 μm 2-PMPA-solution (PBS)). The cells were then incubated for 0, 20, 40 and 60 min at 37° C. Consequently, the supernatant was removed and the cells were washed with ice-cold HBSS (250 μL). The combination of the supernatant and the volume of the concomitant washing step with HBSS (200 μL) account for externalized radioligand at the investigated time point. Further, the cells were then washed with ice-cold 2-PMPA HBSS solution (250 μL, 10 μm) twice, combined and thus represented the fraction of membrane-bound radioligand. The determination of the internalized fraction was achieved by lysis as described for the internalization assay with NaOH (250 μL, 1.0 m). The activities of free, externalized, membrane-bound and internalized radioligand were quantified in a γ-counter.

LNCaP-tumor xenograft = assay: Biodistribution in LNCaP-tumor xenograft bearing CB-17 SCID mice; type: in vivo; conditions: male, CB-17 SCID, mouse, in vivo
Procedure: as §1

[3] = Lipophilicity, logP in n-octanol/PBS of radiolabeled PSMA inhibitors; type: physicochemical; conditions: pH 7.4
Procedure: The radiolabeled PSMA inhibitor (0.5 to 1.0 MBq) dissolved in PBS (500 μL, pH=7.4), was added to n-octanol (500 μL) in a reaction vial (1.5 mL), which was rigorously vortexed for 3 min (n=6). For quantitative phase separation, the mixture was centrifuged at 6,000 g for 5 min (Biofuge 15, Heraus Sepatech, Osterode, Germany). The activity from samples of each phase (100 μL) were measured in a γ-counter to obtain the log P(o/w) value.

PSMA = biological target: T2, PSMA (Homo sapiens, UniProt Q04609); assay: Competitive binding assay (IC50) on LNCaP cells with ([^125I]I-BA)KuE as radioligand; conditions: LNCaP cells 1.5*10^5 cells/well, 1 h, 4° C., HBSS + 1% BSA, radioligand ([^125I]I-BA)KuE; mean ± SD (n = 3)
T2 construct: host or cells: LNCaP cells
T2 sequence (Q04609 whole entry): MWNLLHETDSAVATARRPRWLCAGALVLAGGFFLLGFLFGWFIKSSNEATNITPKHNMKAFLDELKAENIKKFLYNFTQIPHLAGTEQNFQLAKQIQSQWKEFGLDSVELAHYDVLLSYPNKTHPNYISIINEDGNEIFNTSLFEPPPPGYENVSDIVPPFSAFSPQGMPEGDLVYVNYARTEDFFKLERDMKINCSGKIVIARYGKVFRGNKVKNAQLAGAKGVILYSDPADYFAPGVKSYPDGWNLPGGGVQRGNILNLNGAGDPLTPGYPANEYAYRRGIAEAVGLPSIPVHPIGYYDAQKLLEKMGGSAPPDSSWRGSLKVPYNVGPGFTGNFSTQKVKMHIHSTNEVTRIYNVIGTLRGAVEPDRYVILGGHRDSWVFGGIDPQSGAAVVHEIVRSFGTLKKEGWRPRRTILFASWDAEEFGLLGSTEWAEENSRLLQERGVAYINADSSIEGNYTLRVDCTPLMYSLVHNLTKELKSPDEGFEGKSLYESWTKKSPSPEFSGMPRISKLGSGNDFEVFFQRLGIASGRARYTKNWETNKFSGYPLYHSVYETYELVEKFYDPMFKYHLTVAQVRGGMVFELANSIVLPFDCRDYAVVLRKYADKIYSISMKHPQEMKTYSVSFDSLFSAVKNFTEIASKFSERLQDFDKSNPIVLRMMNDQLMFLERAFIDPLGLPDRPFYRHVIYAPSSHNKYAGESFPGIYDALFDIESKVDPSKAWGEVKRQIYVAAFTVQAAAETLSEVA
Procedure: One day (24 h±2 h) prior to all experiments with LNCaP cells, the cultivated cells were harvested using a mixture of trypsin/ethylendiaminetetraacetate (0.05%/0.02%) and PBS and centrifuged. After centrifugation, the supernatant was disposed and the cell pellet resuspended in culture medium. Afterwards, cells were counted with a hemocytometer (Neubauer) and seeded in 24-well plates.
After removal of the culture medium, the cells were treated once with HBSS (500 μL, Hank's balanced salt solution, Biochrom, Berlin, Germany, with addition of 1% BSA) and left 15 min on ice for equilibration in HBSS (200 μL, 1% BSA). […] All experiments were performed at least three times for each concentration. After 60 min incubation on ice, the experiment was terminated by removal of the medium and consecutive rinsing with HBSS (200 μL). The media of both steps were combined in one fraction and represent the amount of free radioligand. Afterwards, the cells were lysed with NaOH (250 μL, 1.0 m) and united with the HBSS (200 μL) of the following washing step. Quantification of bound and free radioligand was accomplished in a γ-counter.

[4] = after logarithmic plotting and calibration (n = 1)

O=C(O)CC[C@H](NC(=O)N[C@@H](CCCCNC(=O)CCCCC[C@H](NC(=O)c1ccc([N+](=O)[O-])cc1[N+](=O)[O-])C(=O)NCCCC[C@@H](NC(=O)[C@@H](Cc1ccccc1)NC(=O)[C@@H](Cc1ccc(O)c(I)c1)NC(=O)CCC(C(=O)O)N1CCN(CC(=O)O)CCN(CC(=O)O)CCN(CC(=O)O)CC1)C(=O)O)C(=O)O)C(=O)O (stereo partly drawn) [PSMA-36, DOTAGA-y(3-I)fk(L-Asu[KuE]-2,4-DNBA)]
HSA (albumin binding) (HSA; [4]): 82.5% | Internalization (LNCaP cells [1]): 189.8 ± 37.5% | tumor uptake (PET) (LNCaP-tumor): 3.5 % ID/mL

O=C(O)CC[C@H](NC(=O)N[C@@H](CCC(=O)N[C@H](CCCNC(=O)C[C@@H](NC(=O)c1cc(C(=O)O)cc(C(=O)O)c1)C(=O)NCCCC[C@@H](NC(=O)[C@@H](Cc1ccc2ccccc2c1)NC(=O)[C@@H](Cc1ccc(O)cc1)NC(=O)[C@H](CNC(=O)c1cc(C(=O)O)cc(C(=O)O)c1)NC(=O)CCC(C(=O)O)N1CCN(CC(=O)O)CCN(CC(=O)O)CCN(CC(=O)O)CC1)C(=O)O)C(=O)O)C(=O)O)C(=O)O (stereo partly drawn) [PSMA-66, DOTAGA-Dap(TMA)y-2-nal-k(d[N^5-orn-C^4-EuE]-TMA)]
in vitro tumor cell retention (LNCaP cells [2]; 60 min incubation, ^177Lu-labeled): 90.1±3.5% | intracellular activity in the tumor cells (LNCaP cells [2]; after 1 h, ^177Lu-labeled): highest intracellular activity in the tumor cells after 1 h | intracellular clearance (LNCaP cells [2]; re-internalization blocked with 100 μM 2-PMPA-solution): lower than for all other investigated compounds | adrenal gland (LNCaP-tumor xenograft; 1 h): 0.78 ± 0.07 % ID/g | blood (LNCaP-tumor xenograft; 1 h): 0.50 ± 0.03 % ID/g | bone (LNCaP-tumor xenograft; 1 h): 0.37 ± 0.13 % ID/g | brain (LNCaP-tumor xenograft; 1 h): 0.02 ± 0.01 % ID/g | heart (LNCaP-tumor xenograft; 1 h): 0.49 ± 0.06 % ID/g | intestine (LNCaP-tumor xenograft; 1 h): 0.21 ± 0.03 % ID/g | liver (LNCaP-tumor xenograft; 1 h): 0.32 ± 0.02 % ID/g | lung (LNCaP-tumor xenograft; 1 h): 0.62 ± 0.12 % ID/g | muscle (LNCaP-tumor xenograft; 1 h): 0.19 ± 0.07 % ID/g | pancreas (LNCaP-tumor xenograft; 1 h): 0.15 ± 0.04 % ID/g | spleen (LNCaP-tumor xenograft; 1 h): 1.93 ± 0.04 % ID/g | stomach (LNCaP-tumor xenograft; 1 h): 0.28 ± 0.04 % ID/g | tumor/blood (LNCaP-tumor xenograft; 1 h): 20.0 | tumor/kidney (LNCaP-tumor xenograft; 1 h): 0.09 | tumor/muscle (LNCaP-tumor xenograft; 1 h): 52.6 | adrenal g. (LNCaP-tumor xenograft; 24 h): 0.09 ± 0.09 % ID/g | blood (LNCaP-tumor xenograft; 24 h): 0.003 ± 0.001 % ID/g | bone (LNCaP-tumor xenograft; 24 h): 0.02 ± 0.01 % ID/g | brain (LNCaP-tumor xenograft; 24 h): 0.01 ± 0.001 % ID/g | heart (LNCaP-tumor xenograft; 24 h): 0.03 ± 0.007 % ID/g | intestine (LNCaP-tumor xenograft; 24 h): 0.11 ± 0.07 % ID/g | kidney (LNCaP-tumor xenograft; 24 h): 20.92 ± 2.51 % ID/g | liver (LNCaP-tumor xenograft; 24 h): 0.14 ± 0.02 % ID/g | lung (LNCaP-tumor xenograft; 24 h): 0.03 ± 0.007 % ID/g | muscle (LNCaP-tumor xenograft; 24 h): 0.02 ± 0.006 % ID/g | pancreas (LNCaP-tumor xenograft; 24 h): 0.02 ± 0.007 % ID/g | spleen (LNCaP-tumor xenograft; 24 h): 0.09 ± 0.02 % ID/g | stomach (LNCaP-tumor xenograft; 24 h): 0.07 ± 0.03 % ID/g | t/blood (LNCaP-tumor xenograft; 24 h): 1910.0 | t/kidney (LNCaP-tumor xenograft; 24 h): 0.3 | t/liver (LNCaP-tumor xenograft; 24 h): 40.9 | t/muscle (LNCaP-tumor xenograft; 24 h): 286.5 | HSA (albumin binding) (HSA; human, 0.5 mg/mL): 64.4% | logP [3]: -4.25 ± 0.14 | Internalization (LNCaP cells [1]; listed as [^177Lu]PSMA-66): 297.8±2.0% and 297.8% | Internalization (LNCaP cells [1]; listed as [^nat/177Lu]PSMA-66): 297.8 ± 2.0%

O=C(O)CC[C@H](NC(=O)N[C@@H](CCCCNC(=O)[C@H](Cc1ccc2ccccc2c1)NC(=O)[C@H]1CC[C@H](CNC(=O)CN2CCN(CC(=O)O)CCN(CC(=O)O)CCN(CC(=O)O)CC2)CC1)C(=O)O)C(=O)O [PSMA-617, reference compound]
HSA (albumin binding) (HSA; [4]): 74.7% | IC50 (PSMA): 3.8 ± 1.7 nM | Internalization (LNCaP cells [1]): 160.1 ± 1.5%
